In PMC8237303 (Heliyon, 2021):
pIC50, pKd, pKi: −log10 of the molar value. Where a name gives a salt, the structure may show the parent alone. Bridge positions count the residues as written; N and C are the ends. Ends that are not written are not given here.

Legend:
[1] = test system: Nicotinic receptor (Human); assay: [3H]-; assay type: binding; settings: Human receptor (Non-recombinant)
[2] = test system: Ca channel (Type L, Phenylalkylamine); assay: [3H]-; assay type: binding; settings: Rat cerebral cortex
[3] = test system: Ca channel (Type L, Benzothiazepine); assay: [3H]-; assay type: binding; settings: Rat cerebral cortex
PAF receptor = assay: 1-O-Hexadecyl-[3H]-Platelet Activating Factor; assay type: binding; settings: Rabbit platelet
[4] = biological target: Adenosine A1 receptor (Human) (Homo sapiens, UniProt P30542); assay: [3H]8-Cyclopentyl-1,3-dipropylxanthine; assay type: binding; settings: Human recombinant
Adenosine A1 receptor (Human), sequence (P30542 whole entry, canonical isoform): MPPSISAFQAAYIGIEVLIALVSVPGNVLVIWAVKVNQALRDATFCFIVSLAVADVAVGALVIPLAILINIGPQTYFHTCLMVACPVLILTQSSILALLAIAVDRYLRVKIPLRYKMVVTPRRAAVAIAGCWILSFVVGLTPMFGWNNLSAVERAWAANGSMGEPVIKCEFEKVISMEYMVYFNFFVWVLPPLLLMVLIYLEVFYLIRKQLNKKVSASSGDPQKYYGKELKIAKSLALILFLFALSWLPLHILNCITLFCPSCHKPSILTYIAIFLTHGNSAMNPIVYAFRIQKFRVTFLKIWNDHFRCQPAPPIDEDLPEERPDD

[5] = biological target: Dopamine D2 receptor short isoform (Human) (Homo sapiens, UniProt P14416); assay: [3H]-Spiperone binding assay; settings: Human recombinant
Dopamine D2 receptor short isoform (Human), sequence (P14416 1-414 isoform P14416-2): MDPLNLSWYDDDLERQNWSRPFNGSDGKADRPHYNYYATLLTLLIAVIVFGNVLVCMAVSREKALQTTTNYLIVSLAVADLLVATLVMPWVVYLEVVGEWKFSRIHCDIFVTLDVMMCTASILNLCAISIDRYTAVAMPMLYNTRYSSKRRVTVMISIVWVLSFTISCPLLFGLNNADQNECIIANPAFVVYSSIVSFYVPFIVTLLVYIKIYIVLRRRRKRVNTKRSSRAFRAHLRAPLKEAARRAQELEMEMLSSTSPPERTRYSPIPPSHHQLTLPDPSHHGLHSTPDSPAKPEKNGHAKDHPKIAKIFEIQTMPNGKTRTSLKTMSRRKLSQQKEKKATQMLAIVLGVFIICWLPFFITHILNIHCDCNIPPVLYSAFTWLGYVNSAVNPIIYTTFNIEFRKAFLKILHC

[6] = test system: Glutamate receptor (AMPA); assay: D,L-alpha-[3H]-Amino-3-Hydroxy-Methylisoxazole-4-Propionic Acid; assay type: binding; settings: Rat cerebral cortex
IP3 receptor = assay: D-[3H]-Inositol-1,4,5-Triphosphate binding assay; settings: Rat cerebellum
[7] = biological target: Glucocorticoid receptor (Human) (Homo sapiens, UniProt P04150); assay: [3H]-Dexamethasone binding assay; settings: Human recombinant
[8] = test system: GABA A receptor (Benzodiazepine site); assay: [3H]-Flunitrazepam binding assay; settings: Rat whole brain
[9] = biological target: Dopamine transporter (Human) (Homo sapiens, UniProt Q01959); assay: [3H]-WIN35,428 binding assay; settings: Human recombinant
Dopamine transporter (Human), sequence (Q01959 whole entry): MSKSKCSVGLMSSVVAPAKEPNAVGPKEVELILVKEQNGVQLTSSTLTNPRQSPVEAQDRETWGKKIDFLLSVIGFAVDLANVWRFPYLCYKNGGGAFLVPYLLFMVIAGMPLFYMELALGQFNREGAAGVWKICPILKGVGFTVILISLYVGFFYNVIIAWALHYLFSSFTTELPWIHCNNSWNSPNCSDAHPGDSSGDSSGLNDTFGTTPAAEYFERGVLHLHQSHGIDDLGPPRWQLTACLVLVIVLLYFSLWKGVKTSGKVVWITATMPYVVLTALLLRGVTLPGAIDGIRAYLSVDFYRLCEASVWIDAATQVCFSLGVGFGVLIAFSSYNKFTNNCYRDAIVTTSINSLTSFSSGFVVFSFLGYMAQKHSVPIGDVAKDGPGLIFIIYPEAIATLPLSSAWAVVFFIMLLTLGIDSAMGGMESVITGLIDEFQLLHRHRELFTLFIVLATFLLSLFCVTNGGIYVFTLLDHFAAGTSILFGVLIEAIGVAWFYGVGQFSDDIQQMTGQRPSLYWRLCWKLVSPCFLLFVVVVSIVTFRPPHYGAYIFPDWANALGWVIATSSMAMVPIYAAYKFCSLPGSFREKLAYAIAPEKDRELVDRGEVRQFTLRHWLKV

K Channel KATP = assay: [3H]-Glybenclamide binding assay; settings: Rat whole brain
[10] = test system: Imidazoline receptor (Central); assay: [3H]RX 781094; assay type: binding; settings: Rat cerebral cortex
[11] = biological target: Adenosine A3 receptor (Human) (Homo sapiens, UniProt P0DMS8); assay: [125I]-AB-MECA binding assay; settings: Human recombinant
Adenosine A3 receptor (Human), sequence (P0DMS8 whole entry): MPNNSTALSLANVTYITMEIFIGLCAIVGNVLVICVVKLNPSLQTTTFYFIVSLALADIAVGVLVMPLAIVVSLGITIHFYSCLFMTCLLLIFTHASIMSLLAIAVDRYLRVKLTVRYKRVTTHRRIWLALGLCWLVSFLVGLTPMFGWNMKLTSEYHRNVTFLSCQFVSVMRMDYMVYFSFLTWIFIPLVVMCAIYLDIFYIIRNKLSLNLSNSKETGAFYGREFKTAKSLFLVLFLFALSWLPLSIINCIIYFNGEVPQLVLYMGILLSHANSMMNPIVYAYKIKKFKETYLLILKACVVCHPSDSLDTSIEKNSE

[12] = test system: Glutamate (NMDA polyamine site); assay: [3H]-Ifenprodil binding assay; settings: Rat cerebral cortex
[13] = biological target: Serotonin transporter (Human) (Homo sapiens, UniProt P31645); assay: [3H]-Imipramine hydrochloride binding assay; settings: Human recombinant
Serotonin transporter (Human), sequence (P31645 whole entry): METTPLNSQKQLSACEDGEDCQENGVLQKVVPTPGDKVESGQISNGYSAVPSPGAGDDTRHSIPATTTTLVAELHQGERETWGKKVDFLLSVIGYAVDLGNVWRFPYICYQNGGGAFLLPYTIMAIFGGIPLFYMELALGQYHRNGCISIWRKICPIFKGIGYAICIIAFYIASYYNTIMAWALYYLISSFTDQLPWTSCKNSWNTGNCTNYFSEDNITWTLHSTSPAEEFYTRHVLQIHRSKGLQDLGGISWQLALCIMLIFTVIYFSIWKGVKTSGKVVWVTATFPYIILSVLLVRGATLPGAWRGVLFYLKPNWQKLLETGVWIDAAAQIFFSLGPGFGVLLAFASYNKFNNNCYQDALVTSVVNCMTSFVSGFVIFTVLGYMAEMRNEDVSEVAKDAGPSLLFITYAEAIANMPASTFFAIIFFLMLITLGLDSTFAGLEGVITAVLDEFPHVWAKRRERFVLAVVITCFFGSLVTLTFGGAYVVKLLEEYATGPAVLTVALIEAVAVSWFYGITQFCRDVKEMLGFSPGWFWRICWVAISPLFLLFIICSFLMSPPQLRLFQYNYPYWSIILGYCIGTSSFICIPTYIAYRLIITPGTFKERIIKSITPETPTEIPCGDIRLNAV

[14] = test system: Glutamate receptor (Kainate); assay: [3H]-Kainic Acid binding assay; settings: Rat whole brain
Monoamine transporter = assay: [3H]-α-Dihydrotetrabenazine binding assay; settings: Rabbit platelet
[15] = biological target: Neurokinin NK1 receptor (Human) (Homo sapiens, UniProt P25103); assay: [125I]-Substance P binding assay; settings: Human recombinant
Neurokinin NK1 receptor (Human), sequence (P25103 whole entry): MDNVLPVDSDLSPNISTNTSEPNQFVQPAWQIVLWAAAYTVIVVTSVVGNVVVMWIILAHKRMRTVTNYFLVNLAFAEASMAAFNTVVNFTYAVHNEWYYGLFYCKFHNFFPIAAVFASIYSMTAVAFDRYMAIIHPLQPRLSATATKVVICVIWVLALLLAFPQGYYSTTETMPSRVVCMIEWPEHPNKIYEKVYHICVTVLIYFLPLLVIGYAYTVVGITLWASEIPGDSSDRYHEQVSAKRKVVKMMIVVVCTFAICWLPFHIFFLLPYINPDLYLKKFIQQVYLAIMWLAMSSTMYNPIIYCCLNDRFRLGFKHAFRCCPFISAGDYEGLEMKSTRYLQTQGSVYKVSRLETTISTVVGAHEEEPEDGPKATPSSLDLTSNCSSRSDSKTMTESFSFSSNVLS

[16] = test system: Glutamate receptor (NMDA agonist site); assay: [3H]-CGP-39653 binding assay; settings: Rat cerebral cortex
Leukotriene B4 receptor = assay: [3H]-Leukotriene B4 binding assay; settings: Guinea pig lung
Leukotriene D4 receptor = Leukotriene D4 receptor (Cavia porcellus, UniProt Q2NNR5); assay: [3H]-Leukotriene D4 binding assay; settings: Guinea pig lung
Leukotriene D4 receptor, sequence (Q2NNR5 whole entry): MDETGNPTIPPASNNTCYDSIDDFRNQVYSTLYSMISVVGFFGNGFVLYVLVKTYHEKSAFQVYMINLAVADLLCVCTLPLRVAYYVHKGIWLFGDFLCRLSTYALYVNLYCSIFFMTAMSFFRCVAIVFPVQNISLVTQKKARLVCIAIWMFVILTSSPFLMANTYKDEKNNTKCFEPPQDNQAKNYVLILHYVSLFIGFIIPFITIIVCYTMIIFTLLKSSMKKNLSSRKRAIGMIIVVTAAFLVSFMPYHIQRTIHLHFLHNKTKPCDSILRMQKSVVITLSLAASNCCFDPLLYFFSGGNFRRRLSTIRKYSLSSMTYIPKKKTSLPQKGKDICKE

[17] = biological target: Glutamate receptor (NMDAglycine site) (Rattus norvegicus, UniProt P35439); assay: [3H]-MDL105,519 binding assay; settings: Rat cerebral cortex
Glutamate receptor (NMDAglycine site), sequence (P35439 394-800 limits assumed): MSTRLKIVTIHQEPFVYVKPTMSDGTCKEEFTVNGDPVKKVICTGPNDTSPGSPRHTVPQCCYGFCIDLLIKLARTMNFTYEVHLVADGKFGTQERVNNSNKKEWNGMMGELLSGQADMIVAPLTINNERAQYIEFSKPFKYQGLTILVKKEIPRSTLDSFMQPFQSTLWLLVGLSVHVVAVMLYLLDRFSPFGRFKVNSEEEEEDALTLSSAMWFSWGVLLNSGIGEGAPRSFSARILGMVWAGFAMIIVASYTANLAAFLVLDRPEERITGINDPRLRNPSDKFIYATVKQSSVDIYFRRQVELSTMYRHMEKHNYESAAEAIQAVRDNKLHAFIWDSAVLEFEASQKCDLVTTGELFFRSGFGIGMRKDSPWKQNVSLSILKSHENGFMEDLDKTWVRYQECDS

[18] = test system: GABA A receptor (Agonist site); assay: [3H]-Muscimol binding assay; settings: Rat cerebellum
[19] = biological target: Opiate δ receptor (Human) (Homo sapiens, UniProt P41143); assay: [3H]-Naltrindole binding assay; settings: Human recombinant
Opiate δ receptor (Human), sequence (P41143 whole entry): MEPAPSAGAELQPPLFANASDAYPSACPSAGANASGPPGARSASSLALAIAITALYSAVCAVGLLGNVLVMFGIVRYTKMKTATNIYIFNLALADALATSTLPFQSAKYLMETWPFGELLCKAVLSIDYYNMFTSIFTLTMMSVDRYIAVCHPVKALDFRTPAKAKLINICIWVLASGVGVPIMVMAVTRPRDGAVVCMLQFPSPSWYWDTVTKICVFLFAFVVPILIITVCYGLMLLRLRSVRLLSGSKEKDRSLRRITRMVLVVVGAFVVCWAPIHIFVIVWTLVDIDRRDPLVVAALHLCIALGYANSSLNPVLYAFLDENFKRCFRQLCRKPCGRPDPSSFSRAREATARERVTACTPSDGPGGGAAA

[20] = test system: Ca Channel (Type L, Dihydropyridine); assay: [3H]-PN200-110 binding assay; settings: Rat cerebral cortex
α1B-Adrenergic receptor = α1B-Adrenergic receptor (Rattus norvegicus, UniProt P15823); assay: [3H]-Prazosin binding assay; settings: Rat liver
α1A-Adrenergic receptor = α1A-Adrenergic receptor (Rattus norvegicus, UniProt P43140); assay: [3H]-Prazosin binding assay; settings: Rat submandibular gland
α1A-Adrenergic receptor, sequence (P43140 whole entry): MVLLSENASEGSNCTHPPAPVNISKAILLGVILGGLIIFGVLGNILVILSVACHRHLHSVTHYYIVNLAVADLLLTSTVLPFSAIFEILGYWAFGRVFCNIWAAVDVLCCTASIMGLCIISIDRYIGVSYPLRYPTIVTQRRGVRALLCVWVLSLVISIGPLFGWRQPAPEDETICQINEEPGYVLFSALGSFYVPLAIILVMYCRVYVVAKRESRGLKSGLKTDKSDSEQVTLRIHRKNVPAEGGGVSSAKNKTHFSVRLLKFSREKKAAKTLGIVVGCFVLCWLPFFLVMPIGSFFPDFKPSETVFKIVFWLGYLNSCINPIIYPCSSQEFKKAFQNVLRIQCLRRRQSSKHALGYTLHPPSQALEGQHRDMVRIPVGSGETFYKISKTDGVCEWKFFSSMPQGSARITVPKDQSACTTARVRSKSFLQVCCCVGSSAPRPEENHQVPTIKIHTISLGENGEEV

[21] = biological target: Prostanoid EP2 receptor (Human) (Homo sapiens, UniProt P43116); assay: [3H]-Prostaglandin E2 binding assay; settings: Human recombinant
[22] = test system: Glycine receptor (Strychnine sensitive); assay type: binding; settings: Rat spinal cord
[23] = biological target: GABA A receptor (Picrotoxin site); assay: [3H]-EBOB binding assay; parameters: species or system Rat
[24] = test system: Glutamate receptor (NMDA phencycidine site); assay: [3H]-; assay type: binding; settings: Rat cerebral cortex
K Channel SkCa = assay: [125I]-Apamin binding assay; settings: Rat whole brain
[25] = test system: Bombesin receptor (Non-selective); assay: [125I]-Bombesin binding assay; settings: Rat whole brain
[26] = biological target: Neurokinin NK3 receptor (Human) (Homo sapiens, UniProt P29371); assay: [125I]-Neurokinin B; assay type: binding; settings: Human recombinant
Neurokinin NK3 receptor (Human), sequence (P29371 whole entry): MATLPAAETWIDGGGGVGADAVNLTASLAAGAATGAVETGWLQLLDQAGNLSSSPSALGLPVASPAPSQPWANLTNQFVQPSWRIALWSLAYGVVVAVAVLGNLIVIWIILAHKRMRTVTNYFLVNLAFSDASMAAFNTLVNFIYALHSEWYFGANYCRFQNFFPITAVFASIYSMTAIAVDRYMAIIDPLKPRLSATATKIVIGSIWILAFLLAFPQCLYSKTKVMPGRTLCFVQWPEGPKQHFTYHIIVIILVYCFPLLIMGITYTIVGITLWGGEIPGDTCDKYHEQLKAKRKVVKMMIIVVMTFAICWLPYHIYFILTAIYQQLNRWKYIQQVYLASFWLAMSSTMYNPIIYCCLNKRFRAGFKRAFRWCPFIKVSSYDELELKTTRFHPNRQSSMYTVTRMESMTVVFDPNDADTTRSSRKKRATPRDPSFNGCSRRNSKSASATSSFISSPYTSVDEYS

CRF1 receptor (Human) = biological target: T1, CRF1 receptor (Human) (Homo sapiens, UniProt P34998); assay: [125I]-Corticotropin Releasing Factor; assay type: binding; settings: Human recombinant
T1 sequence (P34998 24-415): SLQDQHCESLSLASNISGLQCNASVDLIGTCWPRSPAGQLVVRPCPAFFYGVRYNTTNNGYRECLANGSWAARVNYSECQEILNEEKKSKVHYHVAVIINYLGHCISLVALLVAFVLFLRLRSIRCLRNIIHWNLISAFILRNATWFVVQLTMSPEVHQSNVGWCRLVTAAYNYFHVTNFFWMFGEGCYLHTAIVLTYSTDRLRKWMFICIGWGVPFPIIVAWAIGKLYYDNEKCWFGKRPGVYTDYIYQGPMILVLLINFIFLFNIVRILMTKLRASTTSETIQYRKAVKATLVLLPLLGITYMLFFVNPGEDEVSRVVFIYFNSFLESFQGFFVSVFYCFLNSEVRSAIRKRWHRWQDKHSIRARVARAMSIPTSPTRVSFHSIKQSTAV

Cl.Cl.Clc1ccc(C2CC3CCC2N3)cn1.O (racemic) [(±)-Epibatidine dihydrochloride hydrate]
Inhibition by a positive substance (%) [1]: 100%

COc1ccc(CCN(C)CCCC(C#N)(c2cc(OC)c(OC)c(OC)c2)C(C)C)cc1OC.Cl (racemic) [(±)-Methoxyverapamil hydrochloride]
Inhibition by a positive control substance (%) [2]: 100%

COc1ccc([C@@H]2Sc3ccccc3N(CCN(C)C)C(=O)[C@@H]2OC(C)=O)cc1.Cl (relative stereo) [(+)-cis-Diltiazem hydrochloride]
Inhibition by a positive substance (%) [3]: 96.98%

CCCCCCCCCCCCCCCCOC[C@@H](O)COP(=O)([O-])OCC[N+](C)(C)C [1-O-Palmityl-sn-glycero-3-phosphocholine]
Inhibition by a positive substance (%) (PAF receptor): 100%

CCCn1c(=O)c2[nH]c(C3CCCC3)nc2n(CCC)c1=O [8-Cyclopentyl-1,3-dipropylxanthine]
Inhibition by a positive substance (%) [4]: 96.61%

CC(C)(C)[C@]1(O)CCN2C[C@H]3c4ccccc4CCc4cccc(c43)[C@@H]2C1 [(+)-Butaclamol hydrochloride]
Inhibition by a positive substance (%) [5]: 94.16%

Cc1o[nH]c(=O)c1C[C@H](N)C(=O)O [(S)-AMPA]
Inhibition by a positive substance (%) [6]: 100%

O=P([O-])([O-])OC1C(O)C(O)C(OP(=O)([O-])[O-])C(OP(=O)([O-])[O-])C1O.[K+].[K+].[K+].[K+].[K+].[K+] [D-myo-Inositol 1,4,5-trisphosphate potassium salt]
Inhibition by a positive substance (%) (IP3 receptor): 100%

C[C@@H]1C[C@H]2[C@@H]3CCC4=CC(=O)C=C[C@]4(C)[C@@]3(F)[C@@H](O)C[C@]2(C)[C@@]1(O)C(=O)CO [Dexamethasone]
Inhibition by a positive substance (%) [7]: 99.36%

CN1C(=O)CN=C(c2ccccc2)c2cc(Cl)ccc21 [Diazepam]
Inhibition by a positive substance (%) [8]: 100%

Fc1ccc(C(OCCN2CCN(CCCc3ccccc3)CC2)c2ccc(F)cc2)cc1 [GBR12909 dihydrochloride]
Inhibition by a positive control substance (%) [9]: 99.41%

COc1ccc(Cl)cc1C(=O)NCCc1ccc(S(=O)(=O)NC(=O)NC2CCCCC2)cc1 [Glibenclamide]
Inhibition by a positive substance (%) (K Channel KATP): 100%

CC(=O)O.N=C(N)N/N=C/c1c(Cl)cccc1Cl [Guanabenz acetate salt]
Inhibition by a positive substance (%) [10]: 100%

CNC(=O)[C@H]1O[C@@H](n2cnc3c(NCc4cccc(I)c4)ncnc32)[C@H](O)[C@@H]1O [IB-MECA]
Inhibition by a positive substance (%) [11]: 99.41%

CC(C(O)c1ccc(O)cc1)N1CCC(Cc2ccccc2)CC1.CC(C(O)c1ccc(O)cc1)N1CCC(Cc2ccccc2)CC1.O=C(O)C(O)C(O)C(=O)O (stereo not drawn) [Ifenprodil tartrate salt]
Inhibition by a positive substance (%) [12]: 99.68%

CN(C)CCCN1c2ccccc2CCc2ccccc21 [Imipramine hydrochloride]
Inhibition by a positive substance (%) [13]: 96.87%

C=C(C)[C@H]1CN[C@H](C(=O)O)[C@H]1CC(=O)O.O [Kainic acid monohydrate]
Inhibition by a positive substance (%) [14]: 100%

O=C(O)C(O)C(O)C(=O)O.O=C(c1ccc(F)cc1)C1CCN(CCn2c(=O)[nH]c3ccccc3c2=O)CC1 [Ketanserin tartrate salt]
Inhibition by a positive substance (%) (Monoamine transporter): 100%

Ic1ccccc1CN[C@@H]1C2CCN(CC2)[C@@H]1C(c1ccccc1)c1ccccc1 [L-703,606 oxalate salt hydrate]
Inhibition by a positive substance (%) [15]: 99.87%

Cl.N[C@@H](CCC(=O)O)C(=O)O [L-Glutamic acid hydrochloride]
Inhibition by a positive substance (%) [16]: 100%

CCCCC/C=C\C[C@@H](O)/C=C/C=C/C=C\[C@@H](O)CCCC(=O)O [Leukotriene B4]
Inhibition by a positive control substance (%) (Leukotriene B4 receptor): 92.71%

CCCCC/C=C\C\C=C/C=C/C=C/[C@@H](SC[C@H](N)C(=O)NCC(=O)O)[C@@H](O)CCCC(=O)O [Leukotriene D4]
Inhibition by a positive substance (%) (Leukotriene D4 receptor): 96.63%

O=C(O)/C(=C/c1c(C(=O)O)[nH]c2cc(Cl)cc(Cl)c12)c1ccccc1 [MDL105,519]
Inhibition by a positive substance (%) [17]: 100%

NCc1cc(=O)[nH]o1 [Muscimol]
Inhibition by a positive substance (%) [18]: 99.04%

CS(=O)(=O)O.Oc1ccc2c3c1O[C@H]1c4oc5ccccc5c4C[C@@]4(O)[C@@H](C2)N(CC2CC2)CC[C@]314 [Naltriben methanesulfonate hydrate]
Inhibition by a positive substance (%) [19]: 100%

CCOC(=O)C1=C(C)NC(C)=C(C(=O)OC)C1c1cccc([N+](=O)[O-])c1 (stereo not drawn) [Nitrendipine]
Inhibition by a positive substance (%) [20]: 100%

COc1cc2nc(N3CCN(C(=O)c4ccco4)CC3)nc(N)c2cc1OC [Prazosin hydrochloride]
Inhibition by a positive substance (%) (α1B-Adrenergic receptor): 100%
Inhibition by a positive substance (%) (α1A-Adrenergic receptor): 100%

CCCCC[C@H](O)/C=C/[C@H]1[C@H](O)CC(=O)[C@@H]1C/C=C\CCCC(=O)O [Prostaglandin E2]
Inhibition by a positive substance (%) [21]: 100%

O=C1C[C@@H]2OCC=C3CN4CC[C@]56c7ccccc7N1[C@H]5[C@H]2[C@H]3C[C@H]46 [Strychnine]
Inhibition by a positive substance (%) [22]: 98.79%

C#Cc1ccc(C23OCC(CCC)(CO2)CO3)cc1 [[^3H]-EBOB, [^3H]-ethynylbicycloorthobenzoate]
pKd ([23]; read-out: Kd (nmol/L), binding of the radio-labeled ligand, 7 concentrations, GABAA (Picrotoxin site)): 8.38

(+)-MK-801 hydrogen maleate
Inhibition by a positive substance (%) [24]: 100%

Apamin (CNCKAPETALCARRCQQH-NH2; disulfide 1-11, 3-15; ends not checked; UniProt P01500 28-45, looked up)
Inhibition by a positive substance (%) (K Channel SkCa): 100%

Bombesin acetate hydrate
Inhibition by a positive control substance (%) [25]: 98.81%

Picrotoxin
Inhibition by a positive control substance (%) ([23]; Rat cerebral cortex): 94.33%
pIC50 ([23]; read-out: IC50 for inhibition of the [3H]-EBOB binding, rat cerebral cortex preparation, 7 concentrations, duplicate): 6.22
pKi ([23]; read-out: Ki (mol/L), inhibition of the binding of [3H]-EBOB, GABAA (Picrotoxin site), Ki=IC50/(1+[L/Kd])): 6.50

Succinyl-[Asp 6, N–Me-Phe 8]-Substance P Fragment 6–11
Inhibition by a positive substance (%) [26]: 100%

Urocortin human (DNPSLSIDLTFHLLRTLLELARTQSQRERAEQNRIIFDSV; ends and bridges not checked; UniProt P55089 83-122, looked up)
Inhibition by a positive substance (%) (CRF1 receptor (Human)): 100%
